Source: patent US8772266B2, “Fungicide pyrazole carboxamides derivates” (Bayer Cropscience AG, priority 2009, dated 2014)

System: Sphaerotheca fuliginea
Assay: In vivo preventive test on Sphaerotheca fuliginea (cucumber), Example G
Conditions: 10 ppm of active ingredient, evaluated 7 days after inoculation
Text: After the spray coating has dried on, the plants are inoculated with an aqueous spore suspension of Sphaerotheca fuliginea.

SMILES | disease control [%]
CC1CCc2cccc(C(C)N(C(=O)c3c(C(F)F)nn(C)c3F)C3CC3)c2C1 (mixture of isomers) [Example 50] | 100
CCCCCc1ccccc1C(C)N(C(=O)c1c(C(F)F)nn(C)c1F)C1CC1 (racemic) [Example 26] | 100
CC(c1cccc2c1CCC(C)(C)C2)N(C(=O)c1c(C(F)F)nn(C)c1F)C1CC1 (single isomer, unassigned) [Example 44a] | 100
CC(C)Cc1ccc(F)c(F)c1CN(C(=O)c1c(C(F)F)nn(C)c1F)C1CC1 [Example 112] | 100
Cn1nc(C(F)F)c(C(=O)N(Cc2c(Cl)cccc2C2CC2)C2CC2)c1F [Example 113] | 100
CCCCc1cccc(Cl)c1CN(C(=O)c1c(C(F)F)nn(C)c1F)C1CC1 [Example 115] | 100
Cn1nc(C(F)F)c(C(=O)N(Cc2c(Cl)cccc2[Si](C)(C)C)C2CC2)c1F [Example 116] | 100
Cn1nc(C(F)F)c(C(=O)N(Cc2c(C(F)(F)F)ccc(F)c2C(F)(F)F)C2CC2)c1F [Example 117] | 100
Cn1nc(C(F)F)c(C(=O)N(Cc2cc(F)ccc2[Si](C)(C)C)C2CC2)c1F [Example 118] | 100
CCCCc1ccc(Cl)cc1CN(C(=O)c1c(C(F)F)nn(C)c1F)C1CC1 [Example 119] | 100
CC(C)Cc1ccc(Cl)cc1CN(C(=O)c1c(C(F)F)nn(C)c1F)C1CC1 [Example 120] | 100
CCCCc1ccc(F)cc1CN(C(=O)c1c(C(F)F)nn(C)c1F)C1CC1 [Example 121] | 100
Cn1nc(C(F)F)c(C(=O)N(Cc2cc(F)ccc2C2CC2)C2CC2)c1F [Example 123] | 100
CCc1cccc(Cl)c1CN(C(=O)c1c(C(F)F)nn(C)c1F)C1CC1 [Example 124] | 100
CCCCc1ccc(F)c(F)c1CN(C(=O)c1c(C(F)F)nn(C)c1F)C1CC1 [Example 126] | 100
CC(C)Cc1cccc(F)c1CN(C(=O)c1c(C(F)F)nn(C)c1F)C1CC1 [Example 127] | 100
CCCCc1cccc(F)c1CN(C(=O)c1c(C(F)F)nn(C)c1F)C1CC1 [Example 128] | 100
Cn1nc(C(F)F)c(C(=O)N(Cc2c(F)cccc2C2CC2)C2CC2)c1F [Example 130] | 100
CC(C)c1ccc(F)cc1CN(C(=O)c1c(C(F)F)nn(C)c1F)C1CC1 [Example 135] | 100
CC(C)c1ccc(F)c(F)c1CN(C(=O)c1c(C(F)F)nn(C)c1F)C1CC1 [Example 136] | 100
Cn1nc(C(F)F)c(C(=O)N(Cc2c(F)cccc2C2CCCC2)C2CC2)c1F [Example 137] | 100
Cn1nc(C(F)F)c(C(=O)N(Cc2cc(F)ccc2C2CCCC2)C2CC2)c1F [Example 138] | 100
Cn1nc(C(F)F)c(C(=O)N(Cc2c(C3CCCC3)ccc(F)c2F)C2CC2)c1F [Example 139] | 100
Cn1nc(C(F)F)c(C(=O)N(Cc2c(Cl)cccc2C2CCCC2)C2CC2)c1F [Example 141] | 100
CC(C)c1ccccc1CN(C(=O)c1c(C(F)F)nn(C)c1F)C1CC1C (centres unmarked) [Example 157] | 100

System: not listed separately
Assay: logP by HPLC on reversed-phase column (EEC Directive 79/831 Annex V.A8)
Conditions: HPLC on reversed-phase column (C 18), 40° C., 0.1% aqueous formic acid and acetonitrile, linear gradient 10% to 90% acetonitrile

SMILES | logP
CC(c1cc(Br)cc(Br)c1)N(C(=O)c1c(C(F)F)nn(C)c1F)C1CC1 (racemic) [Example 106] | 4.26
CCCCC1Cc2ccccc2C1N(C(=O)c1c(C(F)F)nn(C)c1F)C1CC1 (centres unmarked) [Example 100] | 4.85

Further lines, results first:

logP | SMILES
3.55 | Cc1cccc2c1CCC2N(C(=O)c1c(C(F)F)nn(C)c1F)C1CC1 (racemic) [Example 102]
3.76 | CC(c1cccc(I)c1)N(C(=O)c1c(C(F)F)nn(C)c1F)C1CC1 (centres unmarked) [Example 103]
3.64 | Cn1nc(C(F)F)c(C(=O)N(Cc2cccc(C(F)(F)F)c2Cl)C2CC2)c1F [Example 104]
3.99 | Cn1nc(C(F)F)c(C(=O)N(Cc2c(Cl)cc(Cl)cc2Cl)C2CC2)c1F [Example 107]
3.31 | Cc1cccc(C)c1CN(C(=O)c1c(C(F)F)nn(C)c1F)C1CC1 [Example 108]
3.42 | Cn1nc(C(F)F)c(C(=O)N(C2CC2)C2CCc3cccc(Cl)c32)c1F (centres unmarked) [Example 109]
3.85 | Cn1nc(C(F)F)c(C(=O)N(Cc2ccccc2Oc2ccc(F)cc2)C2CC2)c1F [Example 110]
4.06 | CCc1ccccc1CN(C(=S)c1c(C(F)F)nn(C)c1F)C1CC1 [Example 133]
3.92 | CC(C)c1ccc(F)cc1CN(C(=O)c1c(C(F)F)nn(C)c1Cl)C1CC1 [Example 146]
4.74 | CC(C)Cc1cccc(Cl)c1CN(C(=O)c1c(C(F)F)nn(C)c1Cl)C1CC1 [Example 150]
4.82 | Cn1nc(C(F)F)c(C(=O)N(Cc2c(Cl)cccc2[Si](C)(C)C)C2CC2)c1Cl [Example 151]
4.92 | Cn1nc(C(F)F)c(C(=O)N(Cc2cc(Cl)ccc2C2CCCC2)C2CC2)c1Cl [Example 152]
4.82 | CC(C)CC(C)c1ccccc1CN(C(=O)c1c(C(F)F)nn(C)c1F)C1CC1 (centres unmarked) [Example 154]
4.25 | Cn1nc(C(F)F)c(C(=O)N(Cc2ccccc2C2CC2C2CC2)C2CC2)c1F (centres unmarked) [Example 155]
4.06 | CCC(C)c1ccccc1CN(C(=O)c1c(C(F)F)nn(C)c1F)C1CC1 (centres unmarked) [Example 156]

Same assay, conditions: HPLC, reversed-phase column (C 18), 40° C., 0.1% aqueous formic acid and acetonitrile, linear gradient 10% to 90% acetonitrile

SMILES | logP
CC1CCc2cccc(C(C)N(C(=O)c3c(C(F)F)nn(C)c3F)C3CC3)c2C1 (mixture of isomers) [Example 50] | 4.59
CCCCCc1ccccc1C(C)N(C(=O)c1c(C(F)F)nn(C)c1F)C1CC1 (racemic) [Example 26] | 4.92
Cn1nc(C(F)F)c(C(=S)N(Cc2ncc(C(F)(F)F)cc2Cl)C2CC2)c1F [Example 7] | 4.11
Cn1nc(C(F)F)c(C(=O)N(Cc2c(Cl)cccc2I)C2CC2)c1F [Example 19] | 3.58
Cn1nc(C(F)F)c(C(=O)N(Cc2cc(Br)ccc2I)C2CC2)c1F [Example 21] | 3.94
CC(C)Cc1cc(Cl)ccc1CN(C(=O)c1c(C(F)F)nn(C)c1F)C1CC1 [Example 31] | 4.59
CC(C)c1ccccc1CN(C(=O)c1c(C(F)F)nn(C)c1Cl)C1CC1 [Example 34] | 3.81
Cn1nc(C(F)F)c(C(=O)N(Cc2ccccc2I)C2CC2)c1Cl [Example 35] | 3.6
CC(c1ccccc1C(F)(F)F)N(C(=O)c1c(C(F)F)nn(C)c1Cl)C1CC1 (centres unmarked) [Example 55] | 3.64
Cn1nc(C(F)F)c(C(=O)N(Cc2ccccc2C(F)(F)F)C2CC2)c1Cl [Example 56] | 3.58
Cn1nc(C(F)F)c(C(=O)N(Cc2ncc(C(F)(F)F)cc2Cl)C2CC2)c1Cl [Example 57] | 3.55
CC(c1ncc(Cl)cc1Cl)N(C(=O)c1c(C(F)F)nn(C)c1Cl)C1CC1 (centres unmarked) [Example 58] | 3.69
Cn1nc(C(F)F)c(C(=O)N(Cc2ccc(Cl)cc2Cl)C2CC2)c1Cl [Example 59] | 3.89
CC(c1ccc(Oc2ccccc2)cc1)N(C(=O)c1c(C(F)F)nn(C)c1Cl)C1CC1 (centres unmarked) [Example 60] | 4.31
CC(c1ccc(Oc2ccccc2)cc1)N(C(=O)c1c(C(F)F)nn(C)c1F)C1CC1 (centres unmarked) [Example 65] | 4.14
CC(c1ccccc1C(F)(F)F)N(C(=O)c1c(C(F)F)nn(C)c1F)C1CC1 (centres unmarked) [Example 66] | 3.42
CCC(c1cc(Cl)cc(Cl)c1)N(C(=O)c1c(C(F)F)nn(C)c1F)C1CC1 (centres unmarked) [Example 71] | 4.41
Cc1cc(C)c2c(c1)C(N(C(=O)c1c(C(F)F)nn(C)c1F)C1CC1)CCC2 (centres unmarked) [Example 74] | 4.25
CC(c1ccc(C(F)(F)c2ccccc2)cc1)N(C(=O)c1c(C(F)F)nn(C)c1F)C1CC1 (centres unmarked) [Example 77] | 4.23
Cn1nc(C(F)F)c(C(=O)N(C2CC2)C2CC(C)(C)c3ccccc32)c1F (centres unmarked) [Example 85] | 3.87
CCCCC(c1ccccc1)N(C(=O)c1c(C(F)F)nn(C)c1F)C1CC1 (centres unmarked) [Example 94] | 4.26

Further lines, results first:

logP | SMILES
4.49 | Cn1nc(C(F)F)c(C(=O)N(Cc2ccccc2[Si](C)(C)C)C2CC2)c1Cl [Example 37]
3.94 | Cn1nc(C(F)F)c(C(=O)N(Cc2cccc(-c3ccccc3)c2)C2CC2)c1Cl [Example 67]
4.2 | CCC(c1ccc(Cl)cc1Cl)N(C(=O)c1c(C(F)F)nn(C)c1F)C1CC1 (centres unmarked) [Example 69]
3.73 | Cc1cc(Br)c(CN(C(=O)c2c(C(F)F)nn(C)c2F)C2CC2)cc1F [Example 75]
4.06 | Cn1nc(C(F)F)c(C(=O)N(Cc2ccccc2C(C)(C)C)C2CC2)c1F [Example 76]
4.15 | CC(c1cccc(C(F)(F)c2ccccc2)c1)N(C(=O)c1c(C(F)F)nn(C)c1F)C1CC1 (centres unmarked) [Example 78]
3.85 | Cc1cc(Cl)c(CN(C(=O)c2c(C(F)F)nn(C)c2F)C2CC2)cc1C [Example 79]
2.84 | Cn1nc(C(F)F)c(C(=O)N(C2CC2)C2CCOc3ccccc32)c1F (centres unmarked) [Example 86]
3.44 | Cn1nc(C(F)F)c(C(=O)N(Cc2cc(Br)c3c(c2Br)OCO3)C2CC2)c1F [Example 87]
4.01 | CCc1cccc(CC)c1CN(C(=O)c1c(C(F)F)nn(C)c1F)C1CC1 [Example 88]
3.6 | CC(c1ccccc1OC(F)(F)F)N(C(=O)c1c(C(F)F)nn(C)c1F)C1CC1 (centres unmarked) [Example 91]
3.51 | Cn1nc(C(F)F)c(C(=O)N(Cc2c(Br)cccc2Br)C2CC2)c1F [Example 92]
4.8 | CCCCC(c1ccc(C(F)(F)F)cc1)N(C(=O)c1c(C(F)F)nn(C)c1F)C1CC1 (centres unmarked) [Example 93]
3.06 | CC(c1ccccc1)N(C(=O)c1c(C(F)F)nn(C)c1F)C1CC1 (centres unmarked) [Example 95]
3.89 | CC(c1cc(C(F)(F)F)ccc1Cl)N(C(=O)c1c(C(F)F)nn(C)c1F)C1CC1 (centres unmarked) [Example 96]
3.78 | Cn1nc(C(F)F)c(C(=O)N(C2CC2)C2CCCc3cccc(Br)c32)c1F (centres unmarked) [Example 97]
3.31 | CC(c1ccccc1Br)N(C(=O)c1c(C(F)F)nn(C)c1F)C1CC1 (centres unmarked) [Example 98]
